Experimental data taken from US5645995A, “Methods for diagnosing an increased risk for breast or ovarian cancer” (Baylor College of Medicine, priority 1996, dated 1997).
Positions count from the first letter of the chain named.

What was measured:
[1] = target: T1, wild-type human progesterone receptor (Homo sapiens, UniProt P06401); assay: Hormone-binding Whole Cell Assay with Scatchard analysis, COS cells expressing wild-type receptor; details: COS cells infected with 250 ng receptor DNA, 50-6400 pM [3H]R5020 overnight, Scatchard analysis (FIG. 7B), read-out: dissociation constant
T1 construct: expressed in transfected cells; host or cells: COS cells (no endogenous progesterone receptor), pcDNAI/Amp vector
T1 sequence (P06401 1-933): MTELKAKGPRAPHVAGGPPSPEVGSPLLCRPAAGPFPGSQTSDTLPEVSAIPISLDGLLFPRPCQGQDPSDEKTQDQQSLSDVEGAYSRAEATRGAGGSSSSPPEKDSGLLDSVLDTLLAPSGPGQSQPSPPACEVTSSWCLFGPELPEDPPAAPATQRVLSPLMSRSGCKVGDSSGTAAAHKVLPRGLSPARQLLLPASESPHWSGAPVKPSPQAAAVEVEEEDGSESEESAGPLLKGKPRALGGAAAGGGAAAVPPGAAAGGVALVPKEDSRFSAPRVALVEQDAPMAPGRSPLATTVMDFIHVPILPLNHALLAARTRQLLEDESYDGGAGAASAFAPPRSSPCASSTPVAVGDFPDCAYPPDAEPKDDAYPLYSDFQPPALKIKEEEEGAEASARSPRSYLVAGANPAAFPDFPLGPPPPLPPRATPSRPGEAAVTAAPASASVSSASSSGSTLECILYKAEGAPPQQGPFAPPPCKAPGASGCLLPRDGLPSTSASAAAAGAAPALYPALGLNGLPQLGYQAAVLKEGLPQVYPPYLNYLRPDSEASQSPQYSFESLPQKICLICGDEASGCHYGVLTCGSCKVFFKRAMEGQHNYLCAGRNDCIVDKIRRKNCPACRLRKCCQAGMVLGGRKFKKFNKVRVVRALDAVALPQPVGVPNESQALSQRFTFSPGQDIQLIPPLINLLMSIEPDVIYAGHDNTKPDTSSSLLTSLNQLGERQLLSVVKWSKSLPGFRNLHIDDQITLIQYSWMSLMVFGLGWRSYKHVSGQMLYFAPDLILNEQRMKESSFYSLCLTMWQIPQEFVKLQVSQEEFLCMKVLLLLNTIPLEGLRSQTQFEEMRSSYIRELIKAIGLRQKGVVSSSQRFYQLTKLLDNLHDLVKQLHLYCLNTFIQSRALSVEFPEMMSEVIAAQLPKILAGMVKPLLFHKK
Description: (§1) To determine whether the increase in transcriptional activity found above was due to changes in hormone-binding affinity, hormone binding affinity was measured in a Whole Cell Assay, as described by Bai et al, Mol. Endo., 8(11):1465-1473 (1994), using DNA encoding both the mutant and wild-type progesterone receptor proteins.
(§2) More specifically, COS cells were infected with 250 ng of either mutant or wild-type receptor DNA, as described above, and the infected cells were incubated overnight in DME containing 5.0% (v/v) fetal calf serum and 50-6400 pM of [^3 H]R5020 (DuPont NEN, NET-555) before harvesting. Next, the harvested cells were subjected to ethanol extraction, and bound hormone was measured by CPM counting of the extracts.

[2] = target: T2, mutant human progesterone receptor (valine to leucine at amino acid 660) (Homo sapiens, UniProt P06401, V660L); assay: Hormone-binding Whole Cell Assay with Scatchard analysis, COS cells expressing mutant receptor; details: COS cells infected with 250 ng receptor DNA, 50-6400 pM [3H]R5020 overnight, Scatchard analysis (FIG. 7B), read-out: dissociation constant
T2 construct: expressed in transfected cells; host or cells: COS cells (no endogenous progesterone receptor), pcDNAI/Amp vector
T2 sequence (P06401 1-933 V660L): T1 sequence (P06401 1-933) with V660L
Description: as §1, §2

Kd [1]: 0.25 nM | Kd [2]: 0.25 nM
SMILES: CCC(=O)[C@@]1(C)CC[C@H]2[C@@H]3CCC4=CC(=O)CCC4=C3CC[C@@]21C [R5020]
